Measurements reported in PMC2888720 (Journal of medicinal chemistry, 2009).

Key:
[1] = system: wild-type nontransfected HL-60 cells; assay: Ca2+ mobilization in wild-type nontransfected HL-60 cells; conditions: control cells which do not express FPRs
human neutrophils [2] = assay: Chemotaxis assay in human neutrophils; type: cell-based; conditions: Neutrophil, read-out: EC50 Chemotaxis
human neutrophils [3] = assay: Ca2+ mobilization in human neutrophils; type: cell-based; conditions: Neutrophil, read-out: EC50 Ca2+ mobilization

| SMILES | Ca2+ flux response in wild-type (nontransfected, undifferentiated) HL-60 cells [1] | EC50 (human neutrophils [2]) | EC50 (human neutrophils [3]) |
| --- | --- | --- | --- |
| COc1cccc(Cc2cc(C)nn(CC(=O)Nc3ccc(Br)cc3)c2=O)c1 [14a, N-(4-Bromophenyl)-2-[5-(3-methoxybenzyl)-3-methyl-6-oxo-6H-pyridazin-1-yl]-acetamide] | no response was observed | – | – |
| COc1cccc(Cc2cc(C)nn(CC(=O)Nc3ccc4c(c3)OCO4)c2=O)c1 [14m, N-Benzo[1,3]dioxol-5-yl-2-[5-(3-methoxybenzyl)-3-methyl-6-oxo-6H-pyridazin-1-yl]-acetamide] | – | 1200 ± 600 nM | – |
| COc1cccc(Cc2cc(C)nn(CC(=O)Nc3ccc([N+](=O)[O-])cc3)c2=O)c1 [14p, 2-[5-(3-Methoxybenzyl)-3-methyl-6-oxo-6H-pyridazin-1-yl]-N-(4-nitrophenyl)-acetamide] | – | 1900 ± 600 nM | 21700 ± 4200 nM |
